Measured values from a melting point compilation (Tetko et al.; mined from patent text by program, amines drawn as free bases though some values may be those of a salt).

Compound	melting point
COC1=C(OC)C(=O)C(Cl)=C(C)C1=O	66 to 68 °C
CC(C)(O)c1cc(O)cc(C(C)(C)O)c1	137 to 138 °C
CC1=CC(C)=Nc2c(ccc3nc(O)c(O)nc23)N1	> 300 °C
NC(=O)NCCCCCCNC(N)=O	197 to 200 °C
CCCCCCCCCCOC(=O)N[C@H]1CCCNC(=O)C1	40 to 41 °C
CCC(=O)C(Cc1ccc(O)cc1)C(=O)CC	44 to 54 °C
CC(=O)NCCOC1=C2C=C(S(N)(=O)=O)SC2S(=O)(=O)CC1 (centres undefined)	177 to 181 °C
CC(C)(C)Nc1nc(N)nc2c1ncn2C1C=CC(CO)C1 (centres undefined)	161 to 163 °C
N#CNC(=S)Nc1cccc(Cl)c1	258 to 260 °C
CC(C)CCN1C(=O)C(NC(=O)Nc2cccc(-c3nnn[nH]3)c2)C(=O)N(c2ccccc2)c2ccccc21 (centres undefined)	220 to 222 °C
CCOC(=O)c1sc(C)nc1Oc1cccc(C(F)(F)F)c1	56 °C
CCCCCS(=O)(=O)NC(=O)/C=C/c1ccc(OCC(COC(C)C)OC(C)=O)cc1Oc1ncc(C(F)(F)F)cc1Cl (centres undefined)	101 to 103 °C
CCCCOc1ccc2c(c1)C(N(C)S(C)(=O)=O)=CC(C)(C)O2	114 to 116 °C
CSc1nnc(N2CCN(c3ccc(N4CC(CNC(C)=O)OC4=O)cc3F)CC2)s1 (centres undefined)	222 to 223 °C
COc1c(C)c(C)c(OC)c(CC[C@](C)(O)CO)c1C	82 to 84 °C
N#Cc1cnn2c1NCC=C2c1ccc(Cl)c(Cl)c1	254 to 256 °C
CC1CCC(C(C)C)C(OC(=O)[C@H]2C[C@@H]2C(=O)OC2CC(C)CCC2C(C)C)C1 (some centres undefined)	95 to 96 °C
O=C(NCC12CC3CC(CC(C3)C1)C2)c1cc(F)ccc1Br	143 to 144 °C
Fc1ccc(OC(=S)Nc2ccc(-c3ncn(-c4ccc(OC(F)(F)F)cc4)n3)cc2)cc1	164 to 169 °C
CCCN1CC=C(c2c(C)[nH]c3cc(OC)ccc23)CC1	90 to 95 °C
COc1cc2nc(N3CCN(c4nc5ncccc5o4)CC3)nc(N)c2cc1OC	> 250 °C
N#Cc1ccc(NC2CCN(Cc3cccc(C(F)(F)F)c3)CC2)nn1	170 °C
Cc1cccc(N2Cc3ccccc3P2(=O)C(C)C)c1 (centres undefined)	112 to 113 °C
O=[N+]([O-])C=C1SCCCN1S(=O)(=O)CCCO	80 to 83 °C
CC(C)NC1=NS(=O)(=O)c2sc(Cl)cc2N1	281 to 283 °C
O=[N+]([O-])c1ccc2c(c1)C(c1ccccc1F)=NCc1nc(CO)cn1-2	230 to 231 °C

Compound	melting point
CCOc1nc(NCc2ccco2)nc(Nc2ccc(O)cc2)n1	45 °C
CC1(c2ccc3c(c2)C(c2ccccc2)=NCC(=C[N+](=O)[O-])N3)OCCO1	158 to 161 °C
CN1Cc2c(-c3noc(CNCc4ccccc4)n3)ncn2-c2ccccc2C1=O	88 to 92 °C
NS(=O)(=O)c1cccc2cncn12	148 to 151 °C
COc1cccc(C2(C(N)=O)CCC3(CC2)OCCO3)c1	135 to 138 °C
CC(=O)Oc1ccc(Cl)cc1C(=O)Cl	35 to 38 °C
CC1(C(=O)O)CC1(Br)Br (centres undefined)	108 to 109 °C
CS(=O)(=O)c1ccc(C2=C(c3ccc(F)cc3)CC(CF)(CF)C2)cc1	134 to 135 °C
CN(C)Cc1cc(C(=O)c2sccc2Cl)cc(C(C)(C)C)c1O	131 to 132 °C
Nc1ncc(CCCCc2ccccc2)c(N)n1	126 to 127 °C
COc1ccc2cc(-c3ccc(O)cc3)[nH]c(=O)c2c1	255 °C
COc1cc2nc(S(=O)Cc3nccc(N4CCOCC4)c3F)[nH]c2cc1OC (centres undefined)	213 to 215 °C
Nc1ncnc2c1ncn2CC(/C=C/P(=O)(O)O)CO (centres undefined)	> 300 °C
Cc1cc(Cl)cnc1NCCCNc1ncc(Cc2ccncc2)c(=O)[nH]1	90 to 92 °C
Cc1nc(N2CCN(CC(C)C)C2=O)sc1C(=O)NCc1cnn(C)c1	155 to 158 °C
CC(=O)OCC1OC(OC(C)=O)C(N=[N+]=[N-])C([N+](=O)[O-])C1OC(C)=O (centres undefined)	118 to 120 °C
CCOCCC(=O)OC1(C(=O)CO)CCC2C3CCC4=CC(=O)CCC4(C)C3C(O)CC21C (centres undefined)	149 °C
COC(=O)[C@@H]1C[C@H](OS(=O)(=O)c2ccc(Br)cc2)C(=O)[C@@H]2[C@@]3(C)C[C@@H](c4ccoc4)OC(=O)[C@H]3CC[C@]21C	165 to 166 °C
COc1ccc(Nc2cc(NCCCO)ncn2)cc1	151 to 152 °C
CC1(C)OC(=C(C#N)C#N)C(C#N)=C1c1ccc(N=[N+]=[N-])cc1	184 °C
OC1(c2ccc(Cl)cc2)CCN(CCCc2nnc3n2CCCCC3)CC1	163 °C
Cn1nc(Cl)c(Cl)c1S(=O)(=O)CCCl	56 to 59 °C
O=[N+]([O-])c1ccc(NN=Cc2ncc[nH]2)nc1	268 to 269 °C
CCCCc1nc2c(N)nc3ccc(OCC(=O)N(CCOC)CCOC)cc3c2n1C	125 to 128 °C
CCOC(OCC)N1C(=O)OC(C)(C)c2cc(-c3cc(F)cc(C#N)c3)ccc21	123 to 124 °C

Further lines, results first:

melting point	Compound
> 300 °C	COc1ccc(-c2[nH]nc3c2C(=O)c2c(NC(=O)Nc4ccncc4)cccc2-3)cc1
214 to 215 °C	Cn1cc(C(=O)NCc2ccc(Cl)cc2)c(=O)c2cc(CN3CCC(F)(F)CC3)ccc21
202 °C	COc1ccc(N(C)C(=O)CN(C(=O)CNC(=O)Nc2cccc(C)c2)c2ccccc2)cc1
163 to 164 °C	Cc1ccc(C)c2c1CN(NC(=S)NC(=O)c1ccccc1)C2
119 to 120 °C	CSc1ncc(C(=O)N(C)Cc2cc(C(F)(F)F)cc(C(F)(F)F)c2)c(-c2ccccc2)n1
193 to 194 °C	O=C(Oc1ccc(Oc2ccccc2)cc1)c1ccc(C(=O)Oc2ccc(Oc3ccccc3)cc2)cc1
137 to 141 °C	Cc1ccsc1C(Cc1ccccc1N)N(C)C(=O)C(C)C (centres undefined)
> 230 °C	NC(=O)Nc1cccc2c1nc(/C=C/c1ccccc1)n2-c1ccccn1
86 to 89 °C	CN(C)C(=O)CSc1nc2ccccc2cc1-c1ccccc1
137 to 140 °C	CCC1c2cc3c(cc2C(C=Cc2ccc(NC(C)=O)cc2)=NN(C(C)=O)C1C)OCO3 (centres undefined)
95 to 97 °C	CC(C)C[C@H](NC(=O)NCc1ccccc1)C(=O)N[C@@H](Cc1ccccc1)C(=O)CSCc1ccco1
219 to 224 °C	CCc1nc2cc(C#N)c(Cl)cc2n1-c1ccc(CCNC(=O)NS(=O)(=O)c2ccc(C)cc2)cc1
149 to 151 °C	CCOCc1nc2c(N)nc(C)c(C)c2n1NCc1ccccc1
63 to 66 °C	O=Cc1ccccc1-c1ccc(CBr)cc1
245 to 247 °C	CCc1nc2c(C)cc(C)nc2n1Cc1ccc(-c2ccccc2-c2c(O)c(=O)c2=O)cc1
208 to 213 °C	CCN1C(=O)C(C(=O)Nc2cccc(C(=O)Nc3ccccc3)c2)c2cc(C(=O)C3CCCC3)ccc21 (centres undefined)
155 to 158 °C	O=C(O)[C@H](CS)N(Sc1nc2cc(Cl)ccc2s1)C(=O)Cc1ccccc1
162 °C	CP(C)(=O)CCCOC(=O)c1ccccc1Nc1ccnc2cc(Cl)ccc12
118 to 120 °C	COc1ccc(C2CCN(c3c(C)c(C)c4c(c3C)C(c3ccccc3)C(C)(C)O4)CC2)cc1OC (centres undefined)
124 to 130 °C	CCNC(=O)c1c(C2CC2)nc(CC)n1Cc1ccc2oc(-c3ccccc3NS(=O)(=O)C(F)(F)F)c(Br)c2c1
167 to 169 °C	Cc1cccc2nc3c(c(C)nn3-c3ccccn3)c(Cl)c12
102 °C	COS(=O)(=O)Cc1cccc(-c2nc(=O)c3ccccc3s2)n1
108 to 109 °C	COCCNC(=O)c1ccnc(-c2cccc3cc(Cc4cccc(C(F)(F)F)c4)sc23)c1
83 to 86 °C	CC1(C)COc2ccc(C[C@H](N)[C@H](O)c3cccc(Cl)c3)cc21 (racemic)

melting point	Compound
321 to 325 °C	NC(=O)Nc1nc2c(s1)-c1c(cnn1-c1ccccc1)CC2
218 to 220 °C	CC(C)Cn1c(CN)c(-c2ccccc2)c2cc(SCC(N)=O)ccc2c1=O
230 to 234 °C	O=C(N[C@@H](Cc1ccc(NC(=O)c2c(Cl)cccc2Cl)cc1)C(=O)O)OCC1c2ccccc2-c2ccccc21
180 to 181 °C	CSc1nccc(Oc2ccc(NC(=O)c3cc(F)cc(N4CCCC4)c3)c3ccccc23)n1
137 to 138 °C	CC(C)n1nc(-c2ccc(OCC(N)=O)nc2-c2ccccc2)ccc1=O
218 to 221 °C	COc1ccc(-n2c(N)nc3ccccc32)cc1-c1ccco1
244 to 245 °C	CC(=O)Nc1cc(Cn2c(C(=O)c3cc(C)cc(C)c3)c(C(C)C)c(=O)[nH]c2=O)ccn1
> 220 °C	COc1ccc(-c2ccc3c(c2)c2cc(Cl)cnc2n3S(=O)(=O)c2ccccc2)cc1
104 to 106 °C	CCOc1cccc(C(O)c2ncccc2OC)c1 (centres undefined)
148 to 150 °C	CCOC(=O)CN(C(=S)Nc1cc(Cl)ccc1C)c1ccccc1
128 to 129 °C	COc1cc(NS(=O)(=O)c2cccs2)c2[nH]c(C(=O)NCCSC(c3ccccc3)(c3ccccc3)c3ccccc3)cc2c1
129 to 135 °C	COC(=O)ON1C(=O)c2ccccc2C1=O
142 to 144 °C	O=CN1CCC(c2nn(-c3ccc(C(F)(F)F)cc3)c3cc(F)ccc23)CC1
142 to 143 °C	CCNc1cccc(-c2ccnc3c(C(=O)c4ccco4)cnn23)c1
122 to 123 °C	CCn1ncc2c3onc(-c4cccc(C)c4)c3cnc21
118 °C	NS(=O)(=O)c1cccc(C(=O)CCl)c1
184 °C	CCC1(C(=O)C=Cc2ccc(C(=O)O)cc2)CC1
238 to 240 °C	NC(C(=O)O)c1ccc(C(=O)O)cc1-c1ccccc1 (centres undefined)
93 to 95 °C	O=S(=O)(c1ccccc1)C1CCCC2(C1)OCCO2 (centres undefined)
226 to 228 °C	O=C(NC1CCOc2cc(C(=O)Nc3ccncc3)ccc21)OCc1ccccc1 (centres undefined)
202 °C	Cc1nc(C)c(Cl)c(NCc2ccc(O)cc2)n1
63.5 to 66 °C	CCCc1ccccc1OCCCOc1cccc(OC(=CC(=O)OC)C(=O)OC)c1CC
150 to 152 °C	CN(Cc1cc2c3c(c1)c(=O)c(C(=O)NCc1ccc(F)cc1)cn3CC(=O)N2C)C[C@@H](O)c1ccccc1
205 to 207 °C	COc1ccc(Oc2ccc3c(c2)C=C(C(=O)O)C(C(F)(F)F)O3)cc1Cl (centres undefined)
